Experimental data as given in US10024868B2, “Identification, optimization and use of shared HLA-B*0702 epitopes for immunotherapy” (Vaxon Biotech, priority 2009, dated 2018).

Experiments:
HLA-B*0702 = biological target: T1, HLA-B*0702 (Homo sapiens, UniProt P01889); test: Measurement of peptide relative affinity to HLA-B*0702 (T2-B7 cells, ME-1 mAb staining); format: binding; details: for RA (Relative Affinity to HLA-B*0702): concentration inducing 20% of HLA-B*0702 expression relative to reference peptide CMV265-274, T2-B7 cells, 16 hours, 37° C.
T1 construct: expressed in transfected cells; host or cells: human T2-B7 cells (T2 transfected with HLA-B*0702)
Method: Measurement of Peptide Relative Affinity to HLA-B*0702.
The protocol used has been described previously (Rohrlich et al., 2003). Briefly, T2-B7 cells were incubated at 37° C. for 16 hours with peptides concentrations ranging from 100 μM to 0.1 μM, and then stained with ME-1 monoclonal antibody (mAb) to quantify the surface expression of HLA-B*0702. For each peptide concentration, the HLA-B*0702 specific staining was calculated as the percentage of staining obtained with 100 μM of the reference peptide CMV265-274 (R10V; RPHERNGFTV, SEQ ID NO: 172). The relative affinity (RA) was determined as: RA=(Concentration of each peptide that induces 20% of HLA-B*0702-expression/Concentration of the reference peptide that induces 20% of HLA-B*0702 expression).

[1] = tested on: T2-B7 targets loaded with peptide; test: CTL induction in vivo in HLA-B*0702 transgenic mice, Cr51 cytotoxic assay; details: for Immunogenicity: X mice developed a specific response for a total of Y mice vaccinated, 100 μg peptide subcutaneously in IFA; for Native peptide cross recognition, MAGE-A A / Native peptide cross recognition, MAGE-A I / Native peptide cross recognition, MAGE-A V: X/Y mice; for Native peptide cross recognition, MAGE-A A: CTL tested against T2-B7 targets loaded with native peptide MAGE-A A; for Native peptide cross recognition, MAGE-A I: CTL tested against T2-B7 targets loaded with native peptide MAGE-A I; for Native peptide cross recognition, MAGE-A V: CTL tested against T2-B7 targets loaded with native peptide MAGE-A V; for Cross recognition of the native peptides by induced CTLs (in words): target cells loaded with native cryptic peptides; for Immunogenicity (in words): vaccinated HLA-B*0702 transgenic mice
Method: The HLA-B7 H-2 class-I knockout mice were previously described (Rohrlich et al., 2003).
CTL Induction In Vivo in HLA-B*0702 Transgenic Mice.
Mice were injected subcutaneously with 100 μg of peptide emulsified in Incomplete Freund's Adjuvant (IFA) in the presence of 150 μg of the I-A^b restricted HBVcore128 T helper epitope (TPPAYRPPNAPIL, SEQ ID NO: 173). After 11 days, 5×10^7 spleen cells were stimulated in vitro with peptide (10 μM). On day 6 of culture, the bulk responder populations were tested for specific cytotoxicity.
Targets were labelled with 100 μCi of Cr^51 for 60 min, plated in 96-well V-bottomed plates (3×10^3 cell/well in 100 μL of RPMI 1640 medium) and, when necessary, pulsed with peptides (1 μM) at 37° C. for 2 hours. Effectors were then added in the wells and incubated at 37° C. for 4 hours. Percentage of specific lysis was determined as: % Lysis=(Experimental Release−Spontaneous Release)/(Maximal Release−Spontaneous Release)×100.

Sequence	Binding to HLA-B*0702 molecules (in words) (HLA-B*0702)	RA (Relative Affinity to HLA-B*0702) (HLA-B*0702)	Immunogenicity [1]	Native peptide cross recognition, MAGE-A A [1]	Native peptide cross recognition, MAGE-A I [1]	Native peptide cross recognition, MAGE-A V [1]	Cross recognition of the native peptides by induced CTLs (in words) [1]	Immunogenicity (in words) [1]
APRALVETL (MAGE-A A1L9 peptide)	able to bind to MHC	+ ((+) 5 < RA < 10)	6/11	MAGE-A A (1/8)	MAGE-A I (0/3)	MAGE-A V (0/3)	not able to cross-recognize the native peptides	immunogenic
GPRALIETS (HLA-B7 restricted native peptide) [MAGE-A I]		− ((−) means RA > 10)						
GPRALVETL (HLA-B7 restricted optimized peptide) [MAGE-A L9]			18/18	MAGE-A A (3/8)	MAGE-A I (3/5)	MAGE-A V (4/5)	able to recognize a target cell loaded with each of the native cryptic peptides	strongly immunogenic
GPRALVETS (HLA-B7 restricted native peptide) [MAGE-A V]		− ((−) means RA > 10)						
GPRALAETS (HLA-B7 restricted native peptide) [MAGE-A A]		− ((−) means RA > 10)						
